Common to all, as to details: incubation time: 72 h
For assay [1], the system named is MDA-MB-231. Description: drug sensitivity score (DSS), CellTiter-Glo (DSS (AUC-based score)); higher = stronger drug effect (viability inhibition or cytotoxicity); extreme values may be limits of the assay. The method, boiled down:
(§1)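 Using 20 µl of cell suspension per well, breast cancer cell lines were seeded into 384-well plates pre-loaded with compound at 5 concentrations in 10-fold steps across a compound-specific 10,000-fold range. Incubation lasted 72 h, after which CellTox Green fluorescence at 485/520 nm and then CellTiter-Glo luminescence, following 10 min at room temperature, were recorded. Each plate was normalised to 0.1 % DMSO and a positive kill control before the drug sensitivity score was derived from the area under the fitted dose-response curve.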
A general note: Cellular ATP, detected with luciferase, serves as a proxy for viable cell number.

Assay [2] concerns BT-474. Described as above. Put shortly:
as §1

Assay [3] has as its system DU-4475. The description is as above. Put shortly: as §1
For assay [4], the system named is MDA-MB-436. Described as above. Put shortly:
as §1

For assay [5], the system named is BT-549. Described as above. The method, boiled down: as §1
In assay [6] the test system is MDA-MB-468. The assay is described as above. Put shortly:
as §1

The test system of assay [7] is CAL-85-1. The description is as above. The method, boiled down: as §1
The subject of assay [8] is MCF-10A. The description is as above. Put shortly: as §1
Assay [9] has as its system HCC1937. The description is as above. Put shortly:
as §1

For assay [10], the system named is CAL-148. The description is as above. The method, boiled down:
as §1

Assay [11] relates to CAL-120. The assay is described as above. Put shortly: as §1
Assay [12] concerns HCC1599. The description is as above. Put shortly:
as §1

The test system of assay [13] is Hs578T. Described as above. Put shortly:
as §1

The subject of assay [14] is HCC1143. Described as above. The method, boiled down: as §1
The test system of assay [15] is MFM-223. The description is as above. Put shortly: as §1
For assay [16], the system named is BT-474. Description: normalised viability (% of control), CellTiter-Blue; higher = more viable cells (100 = DMSO, 0 = benzethonium chloride kill control). How it is done: (§2)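 DSRT, CellTiter-Blue viability, 72 h incubation. Signal is normalised to DMSO and benzethonium chloride controls. Value is the normalised response at dose 1.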
(Alamar Blue is a resazurin reagent that responds to reducing activity.)

Assay [17] has as its system DU-4475. The description is as above. How it is done: as §2
The subject of assay [18] is MDA-MB-436. Described as above. How it is done:
as §2

Assay [19] relates to CAL-51. The description is as above. The procedure:
as §2

The subject of assay [20] is BT-549. The description is as above. How it is done: as §2
In assay [21] the test system is CAL-85-1. The description is as above. The procedure: as §2
Assay [22] has as its system HCC1937. The description is as above. How it is done:
as §2

Assay [23] relates to HDQ-P1. The assay is described as above. The procedure: as §2
In assay [24] the test system is HCC1599. Described as above. How it is done:
as §2

Assay [25] deals with Hs578T. The assay is described as above. How it is done: as §2
Assay [26] relates to HCC1143. Described as above. How it is done: as §2
In assay [27] the test system is MFM-223. The description is as above. How it is done: as §2

For `Nc1ncnc2c1c(COc1cccc(Cl)c1)nn2C1CCOCC1`, the drug sensitivity score in assay [1] was 0; in [2], 0; in assay [3], 0; in [4], 0; in assay [5], 0.519; in assay [6], 0. The drug sensitivity score in assay [7], in [8], in [9], in assay [10], in assay [11] and in [12] was 0 each time. Further, the drug sensitivity score in assay [13], in assay [14] and in assay [15] was 0 each time.

Consider `COc1ccc(-c2ccc3c(N4CCOC[C@@H]4C)nc(N4CCOC[C@@H]4C)nc3n2)cc1CO` [AZD8055], for which the drug sensitivity score in assay [1] was 16.8; in [2], 13.7; in assay [3] it was 16.5; in assay [4], 18.9; in [5], 23.9; in assay [6], 22.2. Moreover, the drug sensitivity score in [7] is 22.2; in assay [8], 19.3; in [9], 14.9; in assay [10] it was 22.8; in [11] it was 23.8; in assay [12], 5.62. In addition, the drug sensitivity score was found to be 20.2 in assay [13], 20.2 in assay [14] and 23.8 in [15]. For the same compound, the normalised viability worked out at 103% in assay [16] (1 nM); 103% in assay [17] (1 nM); 113% in assay [18] (1 nM); 94% in assay [19] (1 nM); 106% in assay [20] (1 nM); 96.2% in assay [21] (1 nM). In addition, the normalised viability was determined as 102% in assay [22] (1 nM); 104% in assay [23] (1 nM); 97.8% in assay [24] (1 nM); 105% in assay [25] (1 nM); 98.2% in assay [26] (1 nM); 93% in assay [27] (1 nM).

For the compound `C[C@]12CC[C@H](O)CC1=CC[C@@H]1[C@@H]2CC[C@]2(C)C(c3cccnc3)=CC[C@@H]12` [Abiraterone], the drug sensitivity score in [1], in [2], in assay [3], in assay [4], in assay [5] and in assay [6] was 0 in each case. The drug sensitivity score in [7], in [8], in assay [9], in [10], in assay [11] and in assay [12] was 0 throughout. In addition, the drug sensitivity score in assay [13], in assay [14] and in assay [15] was 0 throughout. In addition, the normalised viability in assay [16] (0.5 nM) stood at 86.1%; in [17] (0.5 nM), 99.4%; in assay [18] (0.5 nM) it was 114%; in assay [19] (0.5 nM), 97.6%; in [20] (0.5 nM), 111%; in [21] (0.5 nM), 82.8%. For the same compound, the normalised viability in [22] (0.5 nM) came to 99.8%; in assay [23] (0.5 nM), 109%; in [24] (0.5 nM), 102%; in assay [25] (0.5 nM), 95.3%; in [26] (0.5 nM), 86.6%; in assay [27] (0.5 nM), 90.2%.

The values above are taken from the supplement of paper PMC4862054.
